# Experimental data published in ChEMBL document CHEMBL1201862, “PubChem BioAssay data set” (2004).
#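 Interpolation was linear, between the two tested concentrations surrounding the appropriate level; five concentrations were tested over 48 hours in 96-well plates. GI50 marks 50% less growth.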 The source made the active and inactive calls. Rule as the data show it: active = GI50 up to about 1.1 µM and inactive = higher.
# Columns and labels:
# Experiment in all cases: growth of human tumour cells (NCI), 48 h
# 786-0 = tested on: 786-0
# CCRF-CEM = tested on: CCRF-CEM
# HL-60 = tested on: HL-60
# HOP-62 = tested on: HOP-62
# K562 = tested on: K562
# Malme-3M = tested on: Malme-3M
# NCI-H226 = tested on: NCI-H226
# OVCAR-8 = tested on: OVCAR-8
# RPMI-8226 = tested on: RPMI-8226
# SF-539 = tested on: SF-539
# SK-MEL-28 = tested on: SK-MEL-28
# SK-MEL-5 = tested on: SK-MEL-5
# SN12C = tested on: SN12C
# UO-31 = tested on: UO-31
# A498 = tested on: A498
# HCC 2998 = tested on: HCC 2998
Structure (SMILES),GI50 (786-0),GI50 (CCRF-CEM),GI50 (HL-60),GI50 (HOP-62),GI50 (K562),GI50 (Malme-3M),GI50 (NCI-H226),GI50 (OVCAR-8),GI50 (RPMI-8226),GI50 (SF-539),GI50 (SK-MEL-28),GI50 (SK-MEL-5),GI50 (SN12C),GI50 (UO-31),GI50 (A498),GI50 (HCC 2998)
CC1=CC(=O)C(C)(C2=NC(C)(C)CO2)c2ccccc21 (centres undefined),> 100 µM (inactive),> 100 µM (inactive),> 100 µM (inactive),> 100 µM (inactive),> 100 µM (inactive),> 100 µM (inactive),> 100 µM (inactive),> 100 µM (inactive),> 100 µM (inactive),> 100 µM (inactive),> 100 µM (inactive),> 100 µM (inactive),> 100 µM (inactive),> 100 µM (inactive),–,–
COC(=O)c1oc([N+](=O)[O-])c(-c2ccccc2)c1-c1ccccc1,> 100 µM (inactive),67.9 µM (inactive),–,> 100 µM (inactive),> 100 µM (inactive),> 100 µM (inactive),> 100 µM (inactive),> 100 µM (inactive),> 100 µM (inactive),> 100 µM (inactive),> 100 µM (inactive),48.3 µM (inactive),> 100 µM (inactive),> 100 µM (inactive),> 100 µM (inactive),> 100 µM (inactive)
COC(=O)/C(C=O)=C/Sc1ccccc1,15.2 µM (inactive),57.5 µM (inactive),45.5 µM (inactive),45.4 µM (inactive),50.7 µM (inactive),–,15.8 µM (inactive),15.6 µM (inactive),65.5 µM (inactive),18 µM (inactive),19.4 µM (inactive),14.2 µM (inactive),19.7 µM (inactive),10.5 µM (inactive),–,37.8 µM (inactive)
N#Cc1c(N)c(C(=O)O)nn(-c2cccc(C(F)(F)F)c2)c1=O,> 100 µM (inactive),> 100 µM (inactive),> 100 µM (inactive),–,64.7 µM (inactive),60 µM (inactive),–,> 100 µM (inactive),88.9 µM (inactive),> 100 µM (inactive),> 100 µM (inactive),53 µM (inactive),> 100 µM (inactive),76.7 µM (inactive),41 µM (inactive),–
CN(C)C(=S)/N=c1\ss/c(=N\C(=S)N(C)C)n1-c1ccc(Cl)cc1,> 100 µM (inactive),> 100 µM (inactive),> 100 µM (inactive),> 100 µM (inactive),> 100 µM (inactive),–,> 100 µM (inactive),> 100 µM (inactive),> 100 µM (inactive),> 100 µM (inactive),> 100 µM (inactive),–,> 100 µM (inactive),> 100 µM (inactive),> 100 µM (inactive),–
FC(F)(F)C1(Br)C(c2ccccc2)=C1c1ccccc1,15.9 µM (inactive),4.43 µM (inactive),7.28 µM (inactive),18.5 µM (inactive),7.14 µM (inactive),15.8 µM (inactive),17.7 µM (inactive),15 µM (inactive),19.3 µM (inactive),17.9 µM (inactive),18.9 µM (inactive),15.4 µM (inactive),14 µM (inactive),18 µM (inactive),–,16.9 µM (inactive)
CCOC(=O)C(=O)Nc1c(CC)cccc1C(C)C,> 100 µM (inactive),–,–,> 100 µM (inactive),–,> 100 µM (inactive),> 100 µM (inactive),> 100 µM (inactive),> 100 µM (inactive),> 100 µM (inactive),> 100 µM (inactive),–,> 100 µM (inactive),> 100 µM (inactive),> 100 µM (inactive),> 100 µM (inactive)
Cc1cc(=O)oc2c(C)c(OCCCOc3ccc4c(C)cc(=O)oc4c3C)ccc12,> 100 µM (inactive),> 100 µM (inactive),> 100 µM (inactive),> 100 µM (inactive),> 100 µM (inactive),> 100 µM (inactive),–,> 100 µM (inactive),> 100 µM (inactive),> 100 µM (inactive),> 100 µM (inactive),> 100 µM (inactive),–,> 100 µM (inactive),> 100 µM (inactive),–
Clc1ccc2cccc3c2c1C1OC3c2ccccc21 (centres undefined),> 100 µM (inactive),> 100 µM (inactive),> 100 µM (inactive),> 100 µM (inactive),66.7 µM (inactive),34.4 µM (inactive),> 100 µM (inactive),> 100 µM (inactive),> 100 µM (inactive),> 100 µM (inactive),> 100 µM (inactive),–,> 100 µM (inactive),> 100 µM (inactive),> 100 µM (inactive),> 100 µM (inactive)
CC(C)(C)OC(=O)C1=C(O)C(C(=O)OC(C)(C)C)C23CCCCC12C(C(=O)OC(C)(C)C)C(O)=C3C(=O)OC(C)(C)C (centres undefined),> 100 µM (inactive),> 100 µM (inactive),> 100 µM (inactive),> 100 µM (inactive),> 100 µM (inactive),> 100 µM (inactive),> 100 µM (inactive),> 100 µM (inactive),> 100 µM (inactive),> 100 µM (inactive),–,> 100 µM (inactive),> 100 µM (inactive),> 100 µM (inactive),> 100 µM (inactive),> 100 µM (inactive)
O=C1C2C(C(=O)N1c1ccccc1)C1c3ccccc3C2C2C(=O)N(c3ccccc3)C(=O)C21 (centres undefined),3.89 µM (inactive),4.9 µM (inactive),2.9 µM (inactive),–,3.42 µM (inactive),3.9 µM (inactive),28.6 µM (inactive),7.08 µM (inactive),4.39 µM (inactive),3.56 µM (inactive),26.2 µM (inactive),4.44 µM (inactive),5.48 µM (inactive),12.7 µM (inactive),6.71 µM (inactive),3.67 µM (inactive)
O=S1(=O)OCCOS(=O)(=O)C1(Br)Br,> 100 µM (inactive),> 100 µM (inactive),> 100 µM (inactive),> 100 µM (inactive),> 100 µM (inactive),> 100 µM (inactive),0.375 µM (active),> 100 µM (inactive),> 100 µM (inactive),> 100 µM (inactive),> 100 µM (inactive),> 100 µM (inactive),> 100 µM (inactive),62.7 µM (inactive),–,> 100 µM (inactive)
CNc1ccc(/C=C2\C=Cc3ccccc32)cc1,31.5 µM (inactive),43.4 µM (inactive),4.45 µM (inactive),18.9 µM (inactive),32 µM (inactive),–,25.1 µM (inactive),64.3 µM (inactive),54.3 µM (inactive),93.3 µM (inactive),88.5 µM (inactive),26.5 µM (inactive),29.9 µM (inactive),10.2 µM (inactive),28.1 µM (inactive),16.6 µM (inactive)
Cc1c2c(cc3c(=O)ccn(CCN(C)C)c13)c(=O)ccn2CCN(C)C,4.13 µM (inactive),5.87 µM (inactive),2.24 µM (inactive),6.62 µM (inactive),17.8 µM (inactive),27.4 µM (inactive),14 µM (inactive),4.76 µM (inactive),–,15 µM (inactive),20.4 µM (inactive),20 µM (inactive),11.2 µM (inactive),10.3 µM (inactive),21.4 µM (inactive),6.19 µM (inactive)
